Measurements published in article PMC9939320 (Acta Pharmaceutica Sinica. B, 2022).

Experiment: cytotoxicity
Format: cell-based

For `NC(=O)c1ncn([C@@H]2O[C@H](CO)[C@@H](O)[C@H]2O)n1` [Ribavirin], the CC50 was > 100 µM.

In the case of `CC1=CC[C@@H]2[C@]34CC[C@](O)(OC3)C(C)(C)[C@@H]4CC[C@@]2(C)[C@@]12Oc1cc(-c3cccnc3)oc(=O)c1[C@@H]2O` [Compound 8, decaturin B], the CC50 was > 100 µM.
